According to patent US11358949B2, “Carbamate and urea compounds as multikinase inhibitors” (ANGEX PHARMACEUTICAL, INC., priority 2017, dated 2022):

Assays:
TIE2/TEK = TIE2/TEK (Homo sapiens, UniProt Q02763); experiment: HotSpot Kinase Assay, TIE2/TEK
Method: (§1) Specifically, for each reaction, kinase and substrate were mixed in a pH 7.5 buffer containing 20 mM HEPES, 10 mM MgCl2, 1 mM EGTA [Ethylene glycol-bis(2-aminoethylether)-N,N,N′,N′-tetraacetic acid], 0.02% Brij35, 0.02 mg/mL BSA (Bovine Serum Albumin), 0.1 mM Na3VO4, 2 mM DTT, and 1% DMSO. Compounds were then added to each reaction mixture. After a 20-min incubation, ATP (Sigma-Aldrich) and [γ-^33P] ATP (PerkinElmer) were added at a final total concentration of 100 μM. Reactions were carried out at room temperature for 2 hours and spotted onto P81 ion exchange cellulose chromatography paper (Whatman). […] The percent remaining kinase activity relative to a vehicle-containing (DMSO) kinase reaction was calculated for each kinase/inhibitor pair. […] IC50 values were calculated using Prism 5 (GraphPad).

FLT3 = FLT3 (Homo sapiens, UniProt P36888); experiment: HotSpot Kinase Assay, FLT3
Method: as §1

KHS/MAP4K5 = KHS/MAP4K5 (Homo sapiens, UniProt Q9Y4K4); experiment: HotSpot Kinase Assay, KHS/MAP4K5
Method: as §1

PDGFβ = PDGFβ (Homo sapiens, UniProt P09619); experiment: HotSpot Kinase Assay, PDGFβ
Method: as §1

DDR2 = DDR2 (Homo sapiens, UniProt Q16832); experiment: HotSpot Kinase Assay, DDR2
Method: as §1

DDR1 = DDR1 (Homo sapiens, UniProt Q08345); experiment: HotSpot Kinase Assay, DDR1
CDK7/cyclin H = CDK7/cyclin H (Homo sapiens, UniProt P50613); experiment: HotSpot Kinase Assay, CDK7/cyclin H
Chain of CDK7/cyclin H (P50613 whole entry): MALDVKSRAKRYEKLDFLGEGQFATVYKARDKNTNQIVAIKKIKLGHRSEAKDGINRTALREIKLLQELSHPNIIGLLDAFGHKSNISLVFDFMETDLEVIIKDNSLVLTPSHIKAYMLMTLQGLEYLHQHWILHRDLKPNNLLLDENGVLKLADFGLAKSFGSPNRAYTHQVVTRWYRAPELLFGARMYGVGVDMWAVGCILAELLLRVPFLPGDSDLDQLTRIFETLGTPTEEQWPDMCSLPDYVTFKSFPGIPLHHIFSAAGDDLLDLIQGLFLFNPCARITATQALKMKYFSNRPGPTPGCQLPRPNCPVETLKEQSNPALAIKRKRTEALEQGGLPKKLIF
Chain of CDK7/cyclin H (P51946 whole entry partner): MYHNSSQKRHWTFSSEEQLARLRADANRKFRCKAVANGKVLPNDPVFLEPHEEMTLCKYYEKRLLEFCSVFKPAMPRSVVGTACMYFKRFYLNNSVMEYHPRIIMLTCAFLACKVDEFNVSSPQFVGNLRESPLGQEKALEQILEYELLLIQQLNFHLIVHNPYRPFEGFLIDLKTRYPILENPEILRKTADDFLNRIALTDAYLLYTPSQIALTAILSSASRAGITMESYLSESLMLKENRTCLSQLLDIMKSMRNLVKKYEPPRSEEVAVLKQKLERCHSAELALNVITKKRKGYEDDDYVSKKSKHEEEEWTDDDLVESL
Chain of CDK7/cyclin H (P51948 whole entry partner): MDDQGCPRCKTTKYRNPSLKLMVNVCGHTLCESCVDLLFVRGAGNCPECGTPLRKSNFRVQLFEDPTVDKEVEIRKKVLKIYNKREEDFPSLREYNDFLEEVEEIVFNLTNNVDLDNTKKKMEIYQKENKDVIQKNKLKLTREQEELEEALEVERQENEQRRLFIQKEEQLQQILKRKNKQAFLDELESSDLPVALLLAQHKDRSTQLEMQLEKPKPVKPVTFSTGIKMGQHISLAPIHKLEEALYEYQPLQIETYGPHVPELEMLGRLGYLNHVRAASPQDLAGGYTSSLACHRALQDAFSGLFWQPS
Method: as §1

TRKA = TRKA (Homo sapiens, UniProt P04629); experiment: HotSpot Kinase Assay, TRKA
Method: as §1

EPHA3 = EPHA3 (Homo sapiens, UniProt P29320); experiment: HotSpot Kinase Assay, EPHA3
Method: as §1

EPHB2 = EPHB2 (Homo sapiens, UniProt P29323); experiment: HotSpot Kinase Assay, EPHB2
Method: as §1

HPK4 = HPK4 (Homo sapiens, UniProt Q8NE63); experiment: HotSpot Kinase Assay, HPK4
Method: as §1

RON/MST1R = RON/MST1R (Homo sapiens, UniProt Q04912); experiment: HotSpot Kinase Assay, RON/MST1R
Method: as §1

SLK/STK2 = SLK/STK2 (Homo sapiens, UniProt Q9H2G2); experiment: HotSpot Kinase Assay, SLK/STK2
Method: as §1

FMS = FMS (Homo sapiens, UniProt P07333); experiment: HotSpot Kinase Assay, FMS
Chain of FMS (P07333 20-972): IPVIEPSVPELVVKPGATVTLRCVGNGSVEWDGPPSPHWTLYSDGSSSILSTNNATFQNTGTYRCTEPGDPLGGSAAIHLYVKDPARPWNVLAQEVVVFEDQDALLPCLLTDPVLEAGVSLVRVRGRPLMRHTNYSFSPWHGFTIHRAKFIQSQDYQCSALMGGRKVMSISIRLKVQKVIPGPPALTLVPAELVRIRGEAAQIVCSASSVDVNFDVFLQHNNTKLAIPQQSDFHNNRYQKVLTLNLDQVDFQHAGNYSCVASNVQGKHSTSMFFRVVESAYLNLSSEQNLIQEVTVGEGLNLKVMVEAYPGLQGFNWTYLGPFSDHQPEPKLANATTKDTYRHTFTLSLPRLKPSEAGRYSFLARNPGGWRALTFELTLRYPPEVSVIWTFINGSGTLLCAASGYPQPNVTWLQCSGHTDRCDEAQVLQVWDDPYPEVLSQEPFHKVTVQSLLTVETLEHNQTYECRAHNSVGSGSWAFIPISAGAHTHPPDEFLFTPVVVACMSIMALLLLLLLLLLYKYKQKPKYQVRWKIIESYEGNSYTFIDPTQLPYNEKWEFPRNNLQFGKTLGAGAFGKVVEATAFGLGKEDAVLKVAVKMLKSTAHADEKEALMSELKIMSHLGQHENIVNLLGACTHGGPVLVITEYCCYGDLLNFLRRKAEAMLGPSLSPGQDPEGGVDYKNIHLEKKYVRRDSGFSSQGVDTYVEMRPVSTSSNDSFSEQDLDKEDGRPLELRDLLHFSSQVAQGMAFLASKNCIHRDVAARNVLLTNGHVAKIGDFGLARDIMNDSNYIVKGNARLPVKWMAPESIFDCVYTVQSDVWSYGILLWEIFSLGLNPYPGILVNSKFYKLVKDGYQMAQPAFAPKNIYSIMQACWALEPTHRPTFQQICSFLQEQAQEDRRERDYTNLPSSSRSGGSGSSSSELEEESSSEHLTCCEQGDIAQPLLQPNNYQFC
Method: as §1

KDR/VEGFR2 = KDR/VEGFR2 (Homo sapiens, UniProt P35968); experiment: HotSpot Kinase Assay, KDR/VEGFR2
Chain of KDR/VEGFR2 (P35968 20-1356): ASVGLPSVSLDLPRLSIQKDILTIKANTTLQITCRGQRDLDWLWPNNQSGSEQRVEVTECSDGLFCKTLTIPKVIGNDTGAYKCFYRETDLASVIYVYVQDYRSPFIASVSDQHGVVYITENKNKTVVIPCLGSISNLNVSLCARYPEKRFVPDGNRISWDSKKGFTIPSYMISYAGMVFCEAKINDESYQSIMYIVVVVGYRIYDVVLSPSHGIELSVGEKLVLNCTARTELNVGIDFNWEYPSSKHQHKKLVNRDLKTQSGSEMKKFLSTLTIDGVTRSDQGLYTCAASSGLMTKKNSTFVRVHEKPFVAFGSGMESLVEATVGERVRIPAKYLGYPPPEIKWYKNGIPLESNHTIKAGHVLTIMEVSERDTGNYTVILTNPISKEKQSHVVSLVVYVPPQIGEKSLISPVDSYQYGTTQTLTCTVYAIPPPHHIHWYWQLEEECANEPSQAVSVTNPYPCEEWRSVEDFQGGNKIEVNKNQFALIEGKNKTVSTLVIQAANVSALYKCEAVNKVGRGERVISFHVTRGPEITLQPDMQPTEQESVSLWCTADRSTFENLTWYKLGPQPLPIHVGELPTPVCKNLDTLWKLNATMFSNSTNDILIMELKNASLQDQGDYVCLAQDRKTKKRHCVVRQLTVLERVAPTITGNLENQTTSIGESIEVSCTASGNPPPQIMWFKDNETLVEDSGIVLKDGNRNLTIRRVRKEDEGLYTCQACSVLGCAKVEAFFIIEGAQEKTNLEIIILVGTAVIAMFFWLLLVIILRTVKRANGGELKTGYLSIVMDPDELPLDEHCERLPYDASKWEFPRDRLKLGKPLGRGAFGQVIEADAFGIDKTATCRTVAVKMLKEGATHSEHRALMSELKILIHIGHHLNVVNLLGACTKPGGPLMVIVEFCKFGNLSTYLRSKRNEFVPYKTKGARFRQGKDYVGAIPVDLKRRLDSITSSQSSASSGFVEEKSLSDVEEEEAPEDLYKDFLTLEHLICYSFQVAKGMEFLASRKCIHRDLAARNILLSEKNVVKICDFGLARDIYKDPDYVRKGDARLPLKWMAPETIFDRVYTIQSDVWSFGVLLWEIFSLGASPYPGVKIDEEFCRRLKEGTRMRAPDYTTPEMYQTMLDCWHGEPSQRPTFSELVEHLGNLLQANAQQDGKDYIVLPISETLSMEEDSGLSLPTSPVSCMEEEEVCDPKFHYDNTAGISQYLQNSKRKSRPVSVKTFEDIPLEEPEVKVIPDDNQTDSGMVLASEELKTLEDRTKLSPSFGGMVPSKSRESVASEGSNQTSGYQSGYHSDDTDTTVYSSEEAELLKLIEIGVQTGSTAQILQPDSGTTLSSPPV

AXL = target: T1, AXL (Homo sapiens, UniProt P30530); experiment: HotSpot Kinase Assay, AXL
T1 sequence (P30530 26-894): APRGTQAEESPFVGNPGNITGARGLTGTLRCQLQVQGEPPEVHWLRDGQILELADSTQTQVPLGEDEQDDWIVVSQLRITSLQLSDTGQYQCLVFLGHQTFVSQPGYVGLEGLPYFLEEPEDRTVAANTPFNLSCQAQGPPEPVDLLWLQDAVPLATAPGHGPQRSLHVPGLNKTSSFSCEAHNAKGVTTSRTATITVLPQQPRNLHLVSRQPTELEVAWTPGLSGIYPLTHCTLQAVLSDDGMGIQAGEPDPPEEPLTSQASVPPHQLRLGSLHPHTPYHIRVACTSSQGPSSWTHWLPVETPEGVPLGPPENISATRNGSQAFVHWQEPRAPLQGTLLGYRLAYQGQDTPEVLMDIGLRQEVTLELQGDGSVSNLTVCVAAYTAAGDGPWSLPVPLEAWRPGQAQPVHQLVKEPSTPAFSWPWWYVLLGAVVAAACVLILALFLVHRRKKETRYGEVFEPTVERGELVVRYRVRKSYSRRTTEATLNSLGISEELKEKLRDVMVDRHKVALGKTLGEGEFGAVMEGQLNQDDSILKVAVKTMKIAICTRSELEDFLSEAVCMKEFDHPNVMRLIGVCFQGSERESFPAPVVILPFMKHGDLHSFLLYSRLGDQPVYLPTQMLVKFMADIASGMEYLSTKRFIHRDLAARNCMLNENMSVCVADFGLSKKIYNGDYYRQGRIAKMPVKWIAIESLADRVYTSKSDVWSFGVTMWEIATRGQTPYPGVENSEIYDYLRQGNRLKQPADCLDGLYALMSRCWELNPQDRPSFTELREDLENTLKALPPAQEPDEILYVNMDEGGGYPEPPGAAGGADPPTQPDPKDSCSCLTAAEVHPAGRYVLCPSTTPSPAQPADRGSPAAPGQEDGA
Method: as §1

LCK = LCK (Homo sapiens, UniProt P06239); experiment: HotSpot Kinase Assay, LCK
Chain of LCK (P06239 whole entry): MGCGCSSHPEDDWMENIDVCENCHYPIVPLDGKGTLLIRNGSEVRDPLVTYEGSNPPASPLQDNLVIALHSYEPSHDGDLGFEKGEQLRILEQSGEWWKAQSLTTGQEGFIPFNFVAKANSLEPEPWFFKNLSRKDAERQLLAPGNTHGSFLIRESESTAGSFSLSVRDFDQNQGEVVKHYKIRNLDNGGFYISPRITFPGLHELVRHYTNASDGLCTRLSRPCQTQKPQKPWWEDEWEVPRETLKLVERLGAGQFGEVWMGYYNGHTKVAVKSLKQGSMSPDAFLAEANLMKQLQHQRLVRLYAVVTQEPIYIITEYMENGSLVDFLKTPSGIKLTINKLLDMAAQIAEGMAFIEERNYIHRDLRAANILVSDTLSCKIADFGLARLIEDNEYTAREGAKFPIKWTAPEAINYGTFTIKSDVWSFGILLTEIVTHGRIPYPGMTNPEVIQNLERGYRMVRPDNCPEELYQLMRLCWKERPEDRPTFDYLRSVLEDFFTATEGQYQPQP
Method: as §1

EPHA1 = EPHA1 (Homo sapiens, UniProt P21709); experiment: HotSpot Kinase Assay, EPHA1
Method: as §1

RET = RET (Homo sapiens, UniProt P07949); experiment: HotSpot Kinase Assay, RET
Method: as §1

Chain of TIE2/TEK (Q02763 23-1124): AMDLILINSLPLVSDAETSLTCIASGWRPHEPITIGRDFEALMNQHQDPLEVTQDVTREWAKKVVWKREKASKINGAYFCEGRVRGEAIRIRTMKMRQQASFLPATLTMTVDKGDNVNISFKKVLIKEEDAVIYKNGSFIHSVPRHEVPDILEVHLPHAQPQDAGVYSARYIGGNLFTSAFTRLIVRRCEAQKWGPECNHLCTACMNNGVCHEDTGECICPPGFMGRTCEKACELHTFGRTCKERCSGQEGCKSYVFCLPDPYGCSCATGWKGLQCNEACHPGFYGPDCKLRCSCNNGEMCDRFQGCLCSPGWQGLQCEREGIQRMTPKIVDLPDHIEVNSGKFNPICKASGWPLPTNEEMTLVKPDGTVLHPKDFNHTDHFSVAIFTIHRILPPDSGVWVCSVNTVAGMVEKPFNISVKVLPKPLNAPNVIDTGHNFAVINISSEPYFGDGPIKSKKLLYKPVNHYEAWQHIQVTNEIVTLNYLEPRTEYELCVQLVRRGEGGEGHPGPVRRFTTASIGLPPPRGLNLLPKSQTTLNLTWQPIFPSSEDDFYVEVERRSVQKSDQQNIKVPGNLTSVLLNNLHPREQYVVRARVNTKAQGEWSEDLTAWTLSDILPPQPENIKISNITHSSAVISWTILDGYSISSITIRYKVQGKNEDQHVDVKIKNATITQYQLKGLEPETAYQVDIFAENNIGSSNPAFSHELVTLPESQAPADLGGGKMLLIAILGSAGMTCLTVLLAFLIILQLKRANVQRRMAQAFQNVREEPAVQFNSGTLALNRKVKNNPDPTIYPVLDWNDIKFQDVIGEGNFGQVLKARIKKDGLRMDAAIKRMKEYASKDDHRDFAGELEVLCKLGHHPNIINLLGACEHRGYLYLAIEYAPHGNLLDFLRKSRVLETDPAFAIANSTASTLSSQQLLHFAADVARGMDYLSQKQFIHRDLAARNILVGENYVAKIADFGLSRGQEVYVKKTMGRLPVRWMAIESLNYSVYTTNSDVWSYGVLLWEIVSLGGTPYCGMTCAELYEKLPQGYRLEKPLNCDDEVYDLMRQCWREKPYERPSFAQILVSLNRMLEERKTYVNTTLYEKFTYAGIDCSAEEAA

## COc1cc2c(Oc3ccc(NC(=O)C4(C(=O)Nc5ccc(F)cc5)CC4)cc3)ccnc2cc1OC(=O)N1CCN(C)CC1 [Compound 1-10]
TIE2/TEK
  IC50: > 1 µM
FLT3
  IC50: < 0.1 µM
KHS/MAP4K5
  IC50: > 1 µM
PDGFβ
  IC50: 0.1 to 1 µM
DDR2
  IC50: < 0.1 µM
DDR1
  IC50: < 0.1 µM
CDK7/cyclin H
  IC50: > 1 µM
TRKA
  IC50: < 0.1 µM
EPHA3
  IC50: 0.1 to 1 µM
EPHB2
  IC50: 0.1 to 1 µM
HPK4
  IC50: < 0.1 µM
RON/MST1R
  IC50: > 1 µM
SLK/STK2
  IC50: > 1 µM
FMS
  IC50: < 0.1 µM
KDR/VEGFR2
  IC50: 0.1 to 1 µM
AXL
  IC50: < 0.1 µM
LCK
  IC50: 0.1 to 1 µM
EPHA1
  IC50: > 1 µM
RET
  IC50: 0.1 to 1 µM
